{
  "source": "the SangsterLogP compilation",
  "data": [
    {"test": "method code SF-HPLC, from DOI: 10.1002/jps.2600750811, PMID: 3772750", "details": "not given", "values": [
      {"molecule": "CC[C@H](C(=O)OCc1ccc(Cl)cc1)[C@H](COC(=O)c1ccccc1)Cc1cncn1C", "logP": 4.9},
      {"molecule": "CC[C@H](C(=O)OCc1ccccc1)[C@H](COC(=O)c1ccccc1)Cc1cncn1C", "logP": 4.37},
      {"molecule": "CCC(C(=O)OCc1ccccc1)C(COC(=O)Cc1ccccc1)Cc1cncn1C", "note": "(stereo unspecified)", "logP": 4},
      {"molecule": "CC[C@H](C(=O)OCc1ccccc1)[C@H](COC(=O)c1cccnc1)Cc1cncn1C", "logP": 3.05}
    ]},
    {"test": "method code SF-HPLC, from DOI: 10.1002/jps.2600750811, PMID: 3772750", "details": "pH 7.4", "values": [
      {"molecule": "CC[C@H](C(=O)OCc1ccc(C)cc1)[C@H](COC(=O)c1ccccc1)Cc1cncn1C", "logD": 4.7},
      {"molecule": "CCCC(=O)OCC(Cc1cncn1C)C(CC)C(=O)OCc1ccccc1", "note": "(stereo unspecified)", "logD": 3.63},
      {"molecule": "CC[C@H](C(=O)OCc1ccccc1)[C@H](COC(=O)c1cccc(Cl)c1)Cc1cncn1C", "logD": 4.93},
      {"molecule": "CC[C@H](C(=O)OCc1ccc(C)cc1)[C@H](COC(=O)C(C)(C)C)Cc1cncn1C", "logD": 4.4},
      {"molecule": "CCCCCC(=O)OCC(Cc1cncn1C)C(CC)C(=O)OCc1ccccc1", "note": "(stereo unspecified)", "logD": 4.6},
      {"molecule": "CC[C@H](C(=O)OCc1ccc(C)cc1)[C@H](COC(C)=O)Cc1cncn1C", "logD": 3.16},
      {"molecule": "CCCC(=O)OC[C@H](Cc1cncn1C)[C@H](CC)C(=O)OCc1ccc(C)cc1", "logD": 4.19}
    ]}
  ]
}
